Measurements published in ChEMBL document CHEMBL4651402, “Screening of ~5500 FDA-approved drugs and clinical candidates for anti-SARS-CoV-2 activity” (2021).
Square brackets hold non-standard residues; d marks the D form. Peptide text beside a SMILES is read from it. pGlu = O=C1CC[C@@H](C(=O)O)N1; Thz = O=C(O)[C@@H]1CSCN1

System: SARS-CoV-2
Assay: microbe, parasite or virus in culture
Details: Severe acute respiratory syndrome coronavirus 2, Vero C1008, 48 h

| SMILES | IC50 [µM] | IC50 (read-out: pIC50 (converted)) [µM] |
| --- | --- | --- |
| C=C1c2c(Cl)ccc(O)c2C(=O)C2=C(O)[C@]3(O)C(=O)C(C(N)=O)=C(O)[C@@H](N(C)C)[C@@H]3[C@@H](O)C12 (stereo partly specified) | > 20 | > 20 |
| CC(Cc1ccccc1)(NC(=O)CN)c1ccccc1 (stereo unspecified) [REMACEMIDE] | > 20 | > 20 |
| CCOC(=O)/C=C(C)/C=C/C=C(C)/C=C/c1c(C)cc(OC)c(C)c1C [ETRETINATE] | > 20 | > 20 |
| CC[C@@]1(O)C(=O)OCc2c1cc1n(c2=O)Cc2cc3c([N+](=O)[O-])cccc3nc2-1 [RUBITECAN] | > 20 | > 20 |
| OC[C@H]1O[C@@H](n2cnc3c(NC4CCCC4)ncnc32)[C@H](O)[C@@H]1O [N6-CYCLOPENTYLADENOSINE] | > 20 | > 20 |
| NS(=O)(=O)c1cc(C(=O)O)cc(N2CCCC2)c1Oc1ccccc1 [PIRETANIDE] | > 20 | > 20 |
| CCc1cc(Cl)c(OC)c(C(=O)NC[C@@H]2CCCN2CC)c1O [ETICLOPRIDE] | > 20 | > 20 |
| CC(C)NCC(O)c1ccc([N+](=O)O)cc1 (stereo unspecified) | > 20 | > 20 |
| Cc1cc2c(C(C)C)c(O)c(O)c(C=O)c2c(O)c1-c1c(C)cc2c(C(C)C)c(O)c(O)c(C=O)c2c1O [GOSSYPOL] | > 20 | > 20 |
| O=C(O)c1ccccc1 [BENZOIC ACID] | > 20 | > 20 |
| O[C@H]1CC[C@H](Nc2ncc3nc(Nc4c(F)cc(F)cc4F)n([C@H]4CCOC4)c3n2)CC1 [TANZISERTIB] | > 20 | > 20 |
| Cc1ccc2c(Br)cc(Br)c(OC(=O)c3ccccc3)c2n1 [BROXALDINE] | > 20 | > 20 |
| CCCCC[C@H](O)CC[C@@H]1[C@H]2Cc3cccc(OCC(=O)O)c3C[C@H]2C[C@H]1O [TREPROSTINIL] | > 20 | > 20 |
| CC(=O)NC1CCSC1=O (stereo unspecified) [CITIOLONE] | > 20 | > 20 |
| C1COC(NC(C2CC2)C2CC2)=N1 [RILMENIDINE] | > 20 | > 20 |
| CC(C)[N@+]1(C)C2CC[C@H]1C[C@@H](OC(=O)C(CO)c1ccccc1)C2 (stereo partly specified) | > 20 | > 20 |
| COCc1c(-c2ccc(NC(=O)Nc3cc(C(F)(F)F)ccc3F)c(F)c2)c2c(N)ncnn2c1CN1CCOCC1 | > 20 | > 20 |
| CCCCC1(CCCC)CN(c2ccccc2)c2cc(SC)c(OCC(=O)N[C@@H](C(=O)NCC(=O)O)c3ccccc3)cc2S(=O)(=O)C1 [ELOBIXIBAT] | > 20 | > 20 |
| C[C@H]1CN([C@H]2CC[C@](C#N)(c3ccc(F)cc3)CC2)CC[C@]1(C(=O)O)c1ccccc1 | > 20 | > 20 |
| CN1CCN(C2=Cc3cc(Cl)ccc3/C(=C/C#N)c3ccccc32)CC1 [RILAPINE] | > 20 | > 20 |

| SMILES | IC50 [µM] | IC50 (read-out: pIC50 (converted)) [µM] |
| --- | --- | --- |
| CCC(=O)O[C@]1(C(=O)SCF)[C@H](C)C[C@H]2[C@@H]3C[C@H](F)C4=CC(=O)C=C[C@]4(C)[C@@]3(F)[C@@H](O)C[C@@]21C [FLUTICASONE PROPIONATE] | > 20 | > 20 |
| Cc1nnc(NS(=O)(=O)c2ccc(N)cc2)s1 [SULFAMETHIZOLE] | > 20 | > 20 |
| Nc1nc(OC(c2ccc(-c3cccc(F)c3)cc2)C(F)(F)F)cc(-c2ccc(C[C@H](N)C(=O)O)cc2)n1 (stereo partly specified) | > 20 | > 20 |
| CN(C)CCCN1c2ccccc2CCc2ccccc21 [IMIPRAMINE] | > 20 | > 20 |
| CCCCC(CC)C1NC(=O)N(SC(Cl)(Cl)Cl)C1=O (stereo unspecified) [CHLORDANTOIN] | > 20 | > 20 |
| CN(C)CCCN1c2ccccc2CCc2ccc(C#N)cc21 [CIANOPRAMINE] | > 20 | > 20 |
| CCCn1c(=O)c2[nH]cnc2n(-c2ccc(Cl)cc2)c1=O [AROFYLLINE] | > 20 | > 20 |
| OC[C@H]1NC[C@H](O)[C@@H](O)[C@@H]1O [DUVOGLUSTAT] | > 20 | > 20 |
| Cc1cc(C(C)(C)C)c(O)c(C)c1CC1=NCCN1 [OXYMETAZOLINE] | > 20 | > 20 |
| O=C1CC[C@@H](C(=O)N2CSC[C@H]2C(=O)O)N1 [PIDOTIMOD] ([pGlu]-[Thz]-OH) | > 20 | > 20 |
| CC(C)C(NC(=O)C(CC(=O)O)NC(=O)C(CCCCN)NC(=O)C(N)CCCNC(=N)N)C(=O)NC(Cc1ccc(O)cc1)C(=O)O (stereo unspecified) (H-RKDVY-OH; configuration not given here) | > 20 | > 20 |
| CCC1(c2ccccc2)C(=O)N(COC)C(=O)N(COC)C1=O [ETEROBARB] | > 20 | > 20 |
| Nc1ccc(S(=O)(=O)Nc2cnc3ccccc3n2)cc1 [SULFAQUINOXALINE] | > 20 | > 20 |
| CC(=O)OCC(=O)[C@@]1(O)[C@H](OC(C)=O)C[C@H]2[C@@H]3CCC4=CC(=O)C=C[C@]4(C)[C@@]3(F)[C@@H](O)C[C@@]21C [TRIAMCINOLONE DIACETATE] | > 20 | > 20 |
| COC(=O)C1=COC(C)C2C[n+]3ccc4c([nH]c5ccccc54)c3CC12 (stereo unspecified) | > 20 | > 20 |
| C[C@]12CC[C@H]3[C@@H](CC[C@@]45O[C@@H]4C(O)=C(C#N)C[C@]35C)[C@@H]1CC[C@@H]2O [TRILOSTANE] | > 20 | > 20 |
| C[C@H]1[C@H](NC(=O)/C(=N\OC(C)(C)C(=O)O)c2csc(N)n2)C(=O)N1S(=O)(=O)O [AZTREONAM] | > 20 | > 20 |
| CC(=O)OCC(=O)[C@H]1CC[C@H]2[C@@H]3CC=C4C[C@@H](O)CC[C@]4(C)[C@H]3CC[C@]12C | > 20 | > 20 |
| NC(=O)N1c2ccccc2C=Cc2ccccc21 [CARBAMAZEPINE] | > 20 | > 20 |
| CNC=O | > 20 | > 20 |

| SMILES | IC50 [µM] | IC50 (read-out: pIC50 (converted)) [µM] |
| --- | --- | --- |
| CCCCCN(CCCOC)C(=O)C(CCC(=O)O)NC(=O)c1ccc(Cl)c(Cl)c1 (stereo unspecified) [LOXIGLUMIDE] | > 20 | > 20 |
| CCN(CC)C(=O)/C(C#N)=C/c1cc(O)c(O)c([N+](=O)[O-])c1 [ENTACAPONE] | > 20 | > 20 |
| CN(C)CC[C@H](CSc1ccccc1)Nc1ccc(S(=O)(=O)NC(=O)c2ccc(N3CCN(Cc4ccccc4-c4ccc(Cl)cc4)CC3)cc2)cc1[N+](=O)[O-] [ABT 737] | > 20 | > 20 |
| CCOc1cccnc1Oc1cncc(-c2ncc(C(=O)N[C@H]3CCOC3)cn2)c1 [PF-06865571] | > 20 | > 20 |
| CC(=O)Nc1ccc(OCC(O)CNC(C)C)cc1 (stereo unspecified) [PRACTOLOL] | > 20 | > 20 |
| Cc1nc(-c2ccc(C(F)(F)F)cc2)sc1C(=O)NCc1ccc(OC(C)(C)C(=O)O)cc1 [GW590735] | > 20 | > 20 |
| O=C(/C=C/c1c(C(=O)O)[nH]c2cc(Cl)cc(Cl)c12)Nc1ccccc1 | > 20 | > 20 |
| C[N+]1(C)C2CCC1CC(OC(=O)C(CO)c1ccccc1)C2 (stereo unspecified) | > 20 | > 20 |
| NC(=O)OC[C@H](O)c1ccccc1Cl | > 20 | > 20 |
| Nc1ccn([C@@H]2CS[C@H](CO)O2)c(=O)n1 [LAMIVUDINE] | > 50.1 | > 50.1 |
| CC1C(=O)CC[C@@H]2C1(C)CC[C@H]1C2(C)CCC2(C)C3CC(C)(C)CCC3(C)CCC12C (stereo partly specified) | > 20 | > 20 |
| Cc1c(-c2ccccc2)oc2c(C(=O)OCCN3CCCCC3)cccc2c1=O [FLAVOXATE] | > 20 | > 20 |
| C[C@H]1O[C@@H](O[C@H]2[C@@H](O)C[C@H](O[C@H]3[C@@H](O)C[C@H](O[C@H]4CC[C@@]5(C)[C@H](CC[C@@H]6[C@@H]5CC[C@]5(C)[C@@H](C7=CC(=O)OC7)CC[C@]65O)C4)O[C@@H]3C)O[C@@H]2C)C[C@H](O)[C@@H]1O [DIGITOXIN] | > 20 | > 20 |
| N[C@H](CCC(=O)NCCS(=O)(=O)O)C(=O)O | > 20 | > 20 |
| CS(=O)(=O)CCNCc1ccc(-c2ccc3ncnc(Nc4ccc(OCc5cccc(F)c5)c(Cl)c4)c3c2)o1 [LAPATINIB] | > 20 | > 20 |
| O=C(O)[C@@H]1C[C@@H](C2CCCCC2)CN1C(=O)CP(=O)(O)CCCCc1ccccc1 [FOSINOPRILAT] | > 20 | > 20 |
| COc1ccc(CC(C)C(C)Cc2ccc(OC)c(OC)c2)cc1OC (stereo unspecified) | > 20 | > 20 |
| CC(=O)[C@H]1CC[C@H]2[C@@H]3C[C@H](C)C4=CC(=O)CC[C@]4(C)[C@H]3[C@@H](O)C[C@]12C [MEDRYSONE] | > 20 | > 20 |
